From the NIST ThermoML archive (doi:10.1021/je200922s) come the findings set out here.

Numbers after ± are expanded uncertainties.

A word on the viscosity: it is the internal friction of a fluid under shear. The mass density is mass per unit of volume.

The conditions of one series: 293.15 K; 101.33 kPa; Liquid; Capillary tube (Ostwald / Ubbelohde) method.
For `CCn1cc[n+](C)c1.O=S(=O)([N-]S(=O)(=O)C(F)(F)F)C(F)(F)F`, the viscosity was 40.24 ± 1.6 mPa·s.
Take `CN1CCCC1=O` [N-methylpyrrolidone]: the viscosity was 1.811 ± 0.074 mPa·s.
Same read-out and setting: the same measure for `CCO` [ethanol]: 1.189 ± 0.048 mPa·s.

Staying with this series, now noted: 293.15 K; 101.33 kPa; Liquid; Vibrating tube method.
On to `CCn1cc[n+](C)c1.O=S(=O)([N-]S(=O)(=O)C(F)(F)F)C(F)(F)F`, for which the mass density is reported as 1523.28 ± 0.7 kg/m3.
Still for that read-out and setting: the same measure for `CN1CCCC1=O` [N-methylpyrrolidone]: 1032.31 ± 0.26 kg/m3; for `CCO` [ethanol]: 789.831 ± 0.12 kg/m3.

Staying with this series, now noted: 298.15 K; 101.33 kPa; Liquid; Capillary tube (Ostwald / Ubbelohde) method.
On to `CCn1cc[n+](C)c1.O=S(=O)([N-]S(=O)(=O)C(F)(F)F)C(F)(F)F`, for which the viscosity was 33.36 ± 1.4 mPa·s.
On to `CN1CCCC1=O` [N-methylpyrrolidone], for which the viscosity was 1.667 ± 0.068 mPa·s.
On the same count and under the same terms, the same measure for `CCO` [ethanol]: 1.095 ± 0.044 mPa·s.

The series is the same for the next values; noted with them: 298.15 K; 101.33 kPa; Liquid; Vibrating tube method.
Regarding `CCn1cc[n+](C)c1.O=S(=O)([N-]S(=O)(=O)C(F)(F)F)C(F)(F)F`, the mass density came to 1518.25 ± 0.69 kg/m3.
On the same count and under the same terms, the same measure for `CN1CCCC1=O` [N-methylpyrrolidone]: 1027.96 ± 0.25 kg/m3.
Still for that read-out and setting: under `CCO` [ethanol] stands 785.535 ± 0.13 kg/m3.

The same series, now with this note: 303.15 K; 101.33 kPa; Liquid; Capillary tube (Ostwald / Ubbelohde) method.
Take `CCn1cc[n+](C)c1.O=S(=O)([N-]S(=O)(=O)C(F)(F)F)C(F)(F)F`: the viscosity is given as 28.1 ± 1.1 mPa·s.
Same read-out and setting: under `CN1CCCC1=O` [N-methylpyrrolidone] stands 1.543 ± 0.063 mPa·s; under `CCO` [ethanol], 1.003 ± 0.041 mPa·s.

The series is the same for the next values; noted with them: 303.15 K; 101.33 kPa; Liquid; Vibrating tube method.
Turning to `CCn1cc[n+](C)c1.O=S(=O)([N-]S(=O)(=O)C(F)(F)F)C(F)(F)F`, the mass density was found to be 1513.23 ± 0.69 kg/m3.
Still for that read-out and setting: the same measure for `CN1CCCC1=O` [N-methylpyrrolidone]: 1023.52 ± 0.25 kg/m3; for `CCO` [ethanol]: 781.22 ± 0.13 kg/m3.

The same series, now with this note: 308.15 K; 101.33 kPa; Liquid; Capillary tube (Ostwald / Ubbelohde) method.
As for `CCn1cc[n+](C)c1.O=S(=O)([N-]S(=O)(=O)C(F)(F)F)C(F)(F)F`, the viscosity worked out at 23.93 ± 0.98 mPa·s.
For the compound `CN1CCCC1=O` [N-methylpyrrolidone], the viscosity was 1.437 ± 0.059 mPa·s.
The same measure, in the same setting: under `CCO` [ethanol] stands 0.914 ± 0.037 mPa·s.

The series is the same for the next values; noted with them: 308.15 K; 101.33 kPa; Liquid; Vibrating tube method.
In the case of `CCn1cc[n+](C)c1.O=S(=O)([N-]S(=O)(=O)C(F)(F)F)C(F)(F)F`, the mass density amounted to 1508.2 ± 0.69 kg/m3.
Still for that read-out and setting: the same measure for `CN1CCCC1=O` [N-methylpyrrolidone]: 1019.06 ± 0.25 kg/m3.
Same read-out and setting: the same measure for `CCO` [ethanol]: 776.875 ± 0.13 kg/m3.

The series is the same for the next values; noted with them: 313.15 K; 101.33 kPa; Liquid; Capillary tube (Ostwald / Ubbelohde) method.
Regarding `CCn1cc[n+](C)c1.O=S(=O)([N-]S(=O)(=O)C(F)(F)F)C(F)(F)F`, the viscosity is reported as 20.66 ± 0.85 mPa·s.
The same measure, in the same setting: the same measure for `CN1CCCC1=O` [N-methylpyrrolidone]: 1.343 ± 0.055 mPa·s; for `CCO` [ethanol]: 0.845 ± 0.034 mPa·s.

Still in this series, the particulars now being: 313.15 K; 101.33 kPa; Liquid; Vibrating tube method.
Take `CCn1cc[n+](C)c1.O=S(=O)([N-]S(=O)(=O)C(F)(F)F)C(F)(F)F`: the mass density was determined as 1503.16 ± 0.68 kg/m3.
Same read-out and setting: under `CN1CCCC1=O` [N-methylpyrrolidone] stands 1014.61 ± 0.24 kg/m3; under `CCO` [ethanol], 772.48 ± 0.13 kg/m3.

The same series, now with this note: 318.15 K; 101.33 kPa; Liquid; Capillary tube (Ostwald / Ubbelohde) method.
For `CCn1cc[n+](C)c1.O=S(=O)([N-]S(=O)(=O)C(F)(F)F)C(F)(F)F`, the viscosity is on record as 17.98 ± 0.73 mPa·s.
Still for that read-out and setting: under `CN1CCCC1=O` [N-methylpyrrolidone] stands 1.258 ± 0.051 mPa·s.
Still for that read-out and setting: the same measure for `CCO` [ethanol]: 0.765 ± 0.031 mPa·s.

The series is the same for the next values; noted with them: 318.15 K; 101.33 kPa; Liquid; Vibrating tube method.
For `CCn1cc[n+](C)c1.O=S(=O)([N-]S(=O)(=O)C(F)(F)F)C(F)(F)F`, the mass density is reported as 1498.19 ± 0.68 kg/m3.
The same measure, in the same setting: under `CN1CCCC1=O` [N-methylpyrrolidone] stands 1010.14 ± 0.24 kg/m3; under `CCO` [ethanol], 768.042 ± 0.14 kg/m3.

Staying with this series, now noted: 323.15 K; 101.33 kPa; Liquid; Capillary tube (Ostwald / Ubbelohde) method.
For the compound `CCn1cc[n+](C)c1.O=S(=O)([N-]S(=O)(=O)C(F)(F)F)C(F)(F)F`, the viscosity amounted to 15.8 ± 0.65 mPa·s.
As to `CN1CCCC1=O` [N-methylpyrrolidone], the viscosity came to 1.184 ± 0.048 mPa·s.
For the compound `CCO` [ethanol], the viscosity was 0.704 ± 0.029 mPa·s.

The series is the same for the next values; noted with them: 323.15 K; 101.33 kPa; Liquid; Vibrating tube method.
On to `CCn1cc[n+](C)c1.O=S(=O)([N-]S(=O)(=O)C(F)(F)F)C(F)(F)F`, for which the mass density came out at 1493.33 ± 0.67 kg/m3.
On the same count and under the same terms, the same measure for `CN1CCCC1=O` [N-methylpyrrolidone]: 1005.68 ± 0.24 kg/m3; for `CCO` [ethanol]: 762.564 ± 0.14 kg/m3.
